Calls of active or inactive are those of the source.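 Rule for the calls: active = compounds whose fitted half-maximal concentration in the cell-protection dose series is at or below a set limit; inactive = the rest.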
These compounds were tested on H9c2 cardiomyocytes, 2-deoxyglucose stress, ATP luminescence, 2 h (assay: protection of cardiomyocytes from 2-deoxyglucose injury, dose response, cell-based, 2-deoxyglucose stress, uHTS hits (AID 588780)).
`CSc1nc2sc3c(c2c(=O)[nH]1)CCC3` was tested, and the IC50 was > 79 µM (inactive). In the case of `Cc1ccc(C(C(=O)NCc2ccccc2)N(Cc2cccs2)C(=O)c2ccc3c(c2)OCCO3)cc1` (stereo not drawn), the IC50 is reported as > 79 µM (inactive). Compound `COC(=O)c1ccccc1NC(=O)/C=C/c1cc(OC)c(OC)c(OC)c1` has an IC50 of 22.9 µM. In the case of `CC(=O)Oc1ccc(C(=O)OCC(=O)c2c(N)n(C)c(=O)n(C)c2=O)cc1OC(C)=O`, the IC50 is reported as 31.8 µM (inactive). Work on `COc1ccc(N(CC(=O)Nc2ccc3c(c2)OCO3)S(=O)(=O)c2ccccc2)c(OC)c1` yielded an IC50 of 15.4 µM. In the case of `O=C(CCc1nc2ccccc2c(=O)[nH]1)N1CCN(S(=O)(=O)c2cccc([N+](=O)[O-])c2)CC1`, the IC50 is reported as > 79 µM (inactive). In the case of `CCOCCn1ccc2c(OCC(=O)Nc3cc(OC)ccc3OC)cccc2c1=O`, the IC50 is reported as > 79 µM (inactive). `Cc1ccccc1N(C(=O)c1snc(C(N)=O)c1N)C(C(=O)NCc1ccccc1)c1ccc(O)cc1` (stereo not drawn) gave an IC50 of 17.8 µM. `O=C1C2C3C=CC(CC3)C2C(=O)N1c1cccc(Br)c1` (stereo not drawn) was tested, and the IC50 was > 79 µM (inactive). `COc1ccc(NC(=O)N(C)C[C@H]2Oc3c(NC(=O)Nc4ccc(C(F)(F)F)cc4)cccc3C(=O)N([C@H](C)CO)C[C@@H]2C)cc1` was tested, and the IC50 was > 79 µM (inactive). For `COC(=O)c1c(C)[nH]c(C(=O)COc2ccc3ccc(=O)oc3c2)c1C`, the IC50 was > 79 µM (inactive). In the case of `CC(=O)Nc1cccc(NC(=O)CSc2ccc(-c3ccccn3)nn2)c1`, the IC50 is reported as > 79 µM (inactive). In the case of `COC(=O)c1ccccc1NC(=O)c1ccc2nccnc2c1`, the IC50 is reported as > 79 µM (inactive).
